Measured values from US20260042764A1, “COMPOSITIONS AND METHODS FOR INHIBITION OF KRAS” (TheRas, Inc., priority 2022, published 2026).

How the values were obtained:
[1] = target: T1, Avi-KRAS WT (1-169) GppNHp/RAF1 RBD-3xFLAG (52-151) (Homo sapiens, UniProt P01116); assay: Raf1-KRAS WT-GppNHP disruption HTRF assay (Biological Example 1); assay type: binding
T1 construct: Avi-KRAS WT (1-169)
How it was run: (§1)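 First, protein mix in Tris pH 7.5 buffer with NaCl, MgCl2, BSA, Tween and 10% DMSO is incubated 1 h at room temperature. Next, reagent mix is added and incubated a further 1 h at room temperature. Finally, HTRF is read and activity normalized to DMSO.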

[2] = target: T2, Avi-KRAS G12V (1-169) GppNHp/RAF1 RBD-3xFLAG (52-151) (Homo sapiens, UniProt P01116, G12V); assay: Raf1-KRAS G12V-GppNHP disruption HTRF assay (Biological Example 1); assay type: binding
T2 construct: Avi-KRAS G12V (1-169)
How it was run: as §1

GP2d cells (KRAS G12D) = assay: Cell-based pERK HTRF assay in GP2d cell (Biological Example 2); conditions: GP2d, GP2d (KRAS G12D) cells, pERK HTRF
How it was run: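 Phospho-ERK is measured by HTRF following a 60 min compound exposure at 0.25% DMSO, with a 9-point half-log curve topping at 1 μM or 100 nM.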

SW620 cells (KRAS G12V) = assay: Cell-based pERK HTRF assay in SW620 cell (Biological Example 4); conditions: Homo sapiens, SW-620, SW620 (KRAS G12V) cells, pERK HTRF
How it was run: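 This assay measures inhibition of ERK phosphorylation downstream of KRAS G12V in intact SW620 cells. Compounds are applied for 4 h over nine half-log concentrations starting at 1 μM, and pERK is quantified by HTRF.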

[3] = target: T3, Avi-KRAS G12R (1-169) GppNHp/RAF1 RBD-3xFLAG (52-151) (Homo sapiens, UniProt P01116, G12R); assay: Raf1-KRAS G12R-GppNHP disruption HTRF assay (Biological Example 1); assay type: binding
T3 construct: Avi-KRAS G12R (1-169)
How it was run: as §1

[4] = target: T4, Avi-KRAS G12D (1-169) GppNHp/RAF1 RBD-3xFLAG (52-151) (Homo sapiens, UniProt P01116, G12D); assay: Raf1-KRAS G12D-GppNHP disruption HTRF assay (Biological Example 1); assay type: binding
T4 construct: Avi-KRAS G12D (1-169)
How it was run: as §1

[5] = KRAS WT, GppNHp-loaded, class symbols
[6] = KRAS G12V, GppNHp-loaded, class symbols
[7] = KRAS G12R, GppNHp-loaded, class symbols
[8] = KRAS G12D, GppNHp-loaded, class symbols

T3 sequence (P01116 1-169 isoform P01116-2 G12R): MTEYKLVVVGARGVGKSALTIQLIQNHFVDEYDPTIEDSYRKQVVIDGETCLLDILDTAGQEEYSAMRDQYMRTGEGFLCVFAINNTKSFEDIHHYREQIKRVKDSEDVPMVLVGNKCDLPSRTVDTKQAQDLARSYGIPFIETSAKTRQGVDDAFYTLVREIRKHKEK
T2 sequence (P01116 1-169 isoform P01116-2 G12V): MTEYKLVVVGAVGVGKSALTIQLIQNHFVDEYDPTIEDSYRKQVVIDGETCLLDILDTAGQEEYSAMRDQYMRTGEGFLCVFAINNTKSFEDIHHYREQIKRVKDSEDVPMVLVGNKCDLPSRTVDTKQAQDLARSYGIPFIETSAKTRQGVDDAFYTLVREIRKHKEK
T1 sequence (P01116 1-169 isoform P01116-2): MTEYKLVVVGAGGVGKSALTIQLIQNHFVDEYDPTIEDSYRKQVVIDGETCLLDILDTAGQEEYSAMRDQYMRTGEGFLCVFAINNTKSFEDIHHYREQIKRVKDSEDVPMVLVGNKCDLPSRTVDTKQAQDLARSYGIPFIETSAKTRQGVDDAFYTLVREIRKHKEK
T4 sequence (P01116 1-169 isoform P01116-2 G12D): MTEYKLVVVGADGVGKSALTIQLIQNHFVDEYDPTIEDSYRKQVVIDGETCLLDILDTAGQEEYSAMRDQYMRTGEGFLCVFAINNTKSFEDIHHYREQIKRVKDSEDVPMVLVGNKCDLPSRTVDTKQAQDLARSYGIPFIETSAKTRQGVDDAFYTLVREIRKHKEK

Row | IC50 [1, 5] | IC50 [2, 6] | IC50 (GP2d cells (KRAS G12D); class symbols) | IC50 (SW620 cells (KRAS G12V); class symbols) | IC50 [3, 7] | IC50 [4, 8] | IC50 ([1]; KRAS WT-GppNHp/RAF1 RBD HTRF) | IC50 ([2]; KRAS G12V-GppNHp/RAF1 RBD HTRF) | IC50 (GP2d cells (KRAS G12D)) | IC50 (SW620 cells (KRAS G12V)) | IC50 ([3]; KRAS G12R-GppNHp/RAF1 RBD HTRF) | IC50 ([4]; KRAS G12D-GppNHp/RAF1 RBD HTRF) | Structure (SMILES)
1 | < 100 nM | < 100 nM | < 100 nM | < 100 nM | < 100 nM | < 100 nM |  |  |  |  |  |  | CCN(c1nc(OC[C@@]23CCCN2C[C@H](F)C3)nc2c(F)c(-c3ccc(F)c4sc(N)c(C#N)c34)c(C(F)(F)F)cc12)[C@H]1CCN(C(=O)N2CC(OC(F)F)C2)C1 (atropisomer, axis not shown) [Compound 794]
2 | < 100 nM | < 100 nM | < 100 nM | < 100 nM | < 100 nM | < 100 nM |  |  |  |  |  |  | CCN(c1nc(OC[C@@]23CCCN2C[C@H](F)C3)nc2c(F)c(-c3ccc(F)c4sc(N)c(C#N)c34)c(C(F)(F)F)cc12)[C@H]1CCN(C(C)=O)[C@@H]1C (atropisomer, axis not shown) [Compound 591]
3 | < 100 nM | < 100 nM | < 100 nM | < 100 nM | < 100 nM | < 100 nM |  |  |  |  |  |  | CCN(c1nc(OC[C@@]23CCCN2C[C@H](F)C3)nc2c(F)c(-c3ccc(F)c4sc(N)c(C#N)c34)c(C(F)(F)F)cc12)[C@H]1CCN(C(=O)c2ccnn2C)C1 (atropisomer, axis not shown) [Compound 723]
4 |  |  |  |  |  |  | 100 to 1000 nM | 100 to 1000 nM | < 100 nM | < 100 nM | 100 to 1000 nM | 100 to 1000 nM | CCC(=O)N1CC[C@@H](N(CC)c2nc(OC[C@@]34CCCN3C[C@H](F)C4)nc3c(F)c(-c4ccc(F)c5sc(N)c(C#N)c45)c(Cl)cc23)[C@H]1C [Compound 324]
5 |  |  |  |  |  |  | 100 to 1000 nM | 1000 to 10000 nM | < 100 nM | 100 to 1000 nM | 1000 to 10000 nM | 100 to 1000 nM | CN(c1nc(OC[C@@]23CCCN2C[C@H](F)C3)nc2c(F)c(-c3ccc(F)c4sc(N)c(C#N)c34)c(C(F)(F)F)cc12)C1CCS(=O)(=O)CC1 [Compound 330]
6 |  |  |  |  |  |  | 100 to 1000 nM | 1000 to 10000 nM | < 100 nM | < 100 nM | 1000 to 10000 nM | 100 to 1000 nM | CN1C[C@@H](N(C)c2nc(OC[C@@]34CCCN3C[C@H](F)C4)nc3c(F)c(-c4ccc(F)c5sc(N)c(C#N)c45)c(C(F)(F)F)cc23)CCC1=O [Compound 478]
7 |  |  |  |  |  |  | 100 to 1000 nM | < 100 nM | < 100 nM | < 100 nM | < 100 nM | < 100 nM | CCN(c1nc(OC[C@@]23CCCN2C[C@H](F)C3)nc2c(F)c(-c3ccc(F)c4sc(N)c(C#N)c34)c(C(F)(F)F)cc12)[C@H]1C[C@H](C)N(C(=O)N(C)C)C1 (atropisomer, axis not shown) [Compound 521]
8 |  |  |  |  |  |  | 1000 to 10000 nM | 1000 to 10000 nM | 100 to 1000 nM | 100 to 1000 nM | > 10000 nM | 1000 to 10000 nM | CCC(=O)N1CC[C@@](C)(N(C)c2nc(OC[C@@]34CCCN3C[C@H](F)C4)nc3c(F)c(-c4ccc(F)c5sc(N)c(C#N)c45)c(C(F)(F)F)cc23)[C@H]1C [Compound 343]
9 |  |  |  |  |  |  | 100 to 1000 nM | 1000 to 10000 nM | < 100 nM | < 100 nM | 1000 to 10000 nM | 100 to 1000 nM | CN(c1nc(OC[C@@]23CCCN2C[C@H](F)C3)nc2c(F)c(-c3ccc(F)c4sc(N)c(C#N)c34)c(C(F)(F)F)cc12)[C@@H]1CC[C@H](O)C1 [Compound 315]
10 | < 100 nM | < 100 nM | < 100 nM | < 100 nM | < 100 nM | < 100 nM |  |  |  |  |  |  | CCN(c1nc(OCC23CCCN2CC(F)C3)nc2c(F)c(-c3ccc(F)c4sc(N)c(C#N)c34)c(C(F)(F)F)cc12)C1CCN(C(=O)c2ccncc2)C1 (stereo not drawn) [Compound 709]
11 | 100 to 1000 nM | 100 to 1000 nM | < 100 nM | < 100 nM | 100 to 1000 nM | 100 to 1000 nM |  |  |  |  |  |  | CC#CC(=O)N1CC[C@@H](N(C)c2nc(OC[C@@]34CCCN3C[C@H](F)C4)nc3c(F)c(-c4ccc(F)c5sc(N)c(C#N)c45)c(C(F)(F)F)cc23)[C@H]1C [Compound 668]
